Experimental data published in ChEMBL document CHEMBL2406963, “Tetrazole and triazole as bioisosteres of carboxylic acid: discovery of diketo tetrazoles and diketo triazoles as anti-HCV agents” (Bioorg Med Chem Lett, 2013).
pEC50: −log10 of the molar value.

Legend:
Hepatitis C virus [1] = assay: Antiviral activity against HCV infected in human Huh7 cells assessed as inhibition of viral replication by measuring EGFP autofluorescence at 50 uM by CCK8 assay relative to control; format: functional, Hepacivirus hominis; conditions: Huh-7
Hepatitis C virus [2] = assay: Antiviral activity against HCV infected in human Huh7 cells assessed as inhibition of viral replication by measuring EGFP autofluorescence at 2 uM by CCK8 assay relative to control; format: functional, Hepacivirus hominis; conditions: Huh-7
[3] = Selectivity index, ratio of CC50 for human HuH7 cells to EC50 for HCV; design: species or system Huh-7
[4] = Cytotoxicity against human HuH7 cells; format: cell-based, Huh-7
Hepatitis C virus [5] = assay: Antiviral activity against HCV infected in human Huh7 cells assessed as inhibition of viral replication by measuring EGFP autofluorescence by CCK8 assay; format: functional, organism-based, Hepacivirus hominis; conditions: Huh-7
Hepatitis C virus [6] = assay: Inhibition of viral genome mRNA expression in HCV by RT-PCR analysis; format: functional, organism-based; conditions: Hepacivirus hominis
Hepatitis C virus [7] = assay: Inhibition of NS5A protein synthesis in HCV by Western blot analysis; format: functional, organism-based; conditions: Hepacivirus hominis

| SMILES | inhibition at 50 µM (Hepatitis C virus [1]) | also measured |
| --- | --- | --- |
| O=C(CC(=O)c1ccccc1OCc1ccc(F)cc1)c1nnc[nH]1 | 55% |  |
| O=C(CC(=O)c1nnc[nH]1)c1cccc(OCc2ccccc2)c1 | 48.2% |  |
| O=C(CC(=O)c1nnc[nH]1)c1cccc(OCc2ccc(Cl)cc2)c1 | 29.2% |  |
| O=C(CC(=O)c1ccco1)c1nnn[nH]1 | 0.9% |  |
| CC(C)C(=O)OC[C@H]1O[C@@H](n2ccc(N)nc2=O)[C@](C)(F)[C@@H]1OC(=O)C(C)C [MERICITABINE] |  | inhibition at 2 µM (Hepatitis C virus [2]): 75.3% |
| O=C(/C=C(\O)c1nnn[nH]1)c1c[nH]c2ccc(Cl)cc12 | 24.3% |  |
| O=C(/C=C(\O)c1nc[nH]n1)c1ccc(Cc2ccc(F)cc2)o1 [S-1360] | 22.4% |  |
| O=C(CC(=O)c1nnc[nH]1)c1ccccc1 | 24.8% |  |
| O=C(CC(=O)c1nnc[nH]1)c1ccc(OCc2ccc(Cl)cc2)cc1 | 70.2% | Ratio CC50/EC50 [3]: >77; CC50 [4]: > 500 µM; pEC50 (Hepatitis C virus [5]): 5.19 |
| O=C(CC(=O)c1nnc[nH]1)c1cccc(OCc2ccc(F)cc2)c1 | 43.4% |  |
| O=C(CC(=O)c1ccccc1OCc1ccc(Cl)cc1)c1nnn[nH]1 | 36.2% |  |
| O=C(CC(=O)c1ccccc1OCc1ccc(Cl)cc1)c1nnc[nH]1 | 53.8% |  |
| O=C(CC(=O)c1nnn[nH]1)c1ccc([N+](=O)[O-])cc1 | 14.7% |  |
| O=C(CC(=O)c1nnn[nH]1)c1ccc(OCc2ccc(F)cc2)cc1 | 10.7% |  |
| O=C(CC(=O)c1ccccc1OCc1ccccc1)c1nnn[nH]1 | 67.6% | Ratio CC50/EC50 [3]: >54; CC50 [4]: > 500 µM; pEC50 (Hepatitis C virus [5]): 5.04 |
| O=C(CC(=O)c1ccccc1OCc1ccc(F)cc1)c1nnn[nH]1 | 6.8% |  |
| O=C(CC(=O)c1nnn[nH]1)c1ccccc1 | -1.3% |  |
| O=C(CC(=O)c1nnn[nH]1)c1ccc(OCc2ccccc2)cc1 | 54.9% |  |
| COc1ccc(C(=O)CC(=O)c2nnn[nH]2)cc1 | 28.7% |  |
| O=C(CC(=O)c1nnn[nH]1)c1ccc(OCc2ccc(Cl)cc2)cc1 | 64.9% |  |
| O=C(CC(=O)c1nnn[nH]1)c1cccc(OCc2ccc(Cl)cc2)c1 | 43.6% |  |
| O=C(CC(=O)c1nnc[nH]1)c1ccc(OCc2ccc(F)cc2)cc1 | 69.7% | inhibition (Hepatitis C virus [6]): Dose-dependent effect; Ratio CC50/EC50 [3]: >128; inhibition (Hepatitis C virus [7]): Dose-dependent effect; CC50 [4]: > 500 µM; pEC50 (Hepatitis C virus [5]): 5.41 |
| O=C(CC(=O)c1ccccc1OCc1ccccc1)c1nnc[nH]1 | 34.4% |  |
| O=C(CC(=O)c1nnn[nH]1)c1cccc(OCc2ccccc2)c1 | 11.1% |  |
| O=C(CC(=O)c1nnn[nH]1)c1cccc(OCc2ccc(F)cc2)c1 | 62.7% |  |
| O=C(CC(=O)c1ccco1)c1nnc[nH]1 | 14.5% |  |
| O=C(CC(=O)c1nnc[nH]1)c1ccc(OCc2ccccc2)cc1 | 12.1% |  |
